Laboratory results as given in patent publication US20120219568A1, “EPIDITHIODIOXO[…] USES THEREOF IN TREATING CANCER” (priority 2011, published 2012).

Key:
SW620 cells [1] = assay: SW620 growth with anticancer drugs, MTT assay; assay type: cell-based, human; settings: for growth inhibitory effect of the drug alone at lower dose: Etoposide 1 μg/ml, Cisplatin 1 μg/ml, 5-FU 0.1 μg/ml, Doxorubicin 0.01 μg/ml; for SW620 cell sensitivity to the drug: drug alone
Method: For cell viability assay, cells were seeded in wells of 96-well plates for 2 days and then treated with different concentrations of mushroom extract fractions or purified verticillin A for 2 days. The cells were then incubated with MTT (3-(4,5-dimethylthiazol-2-yl)-2,5-diphenyltetrazolium bromide) using the MTT assay kit (ATCC, Manassas, Va.) according to the manufacturer's instructions.
Etoposie, Cisplatin, 5-FU and Doxorubicin are commonly used cancer drugs that suppress tumor cell growth through their cytotoxicity. High cytotoxicity is often associated with high dose of their drugs. Furthermore, tumor cells often develop resistance to these cytotoxic drugs. To determine whether Verticillin A can increase the efficacy of these drugs and overcome drug resistance, the effectiveness of Verticillin A combined with these 4 drugs in suppression of tumor cell growth was tested in vitro. SW620 cell sensitivity to these drugs was first measured. SW620 cells are resistant to Etoposide but sensitive to 5-FU. […] SW620 cells were next pretreated with Verticillin A, followed by treatment with Etoposide (1 μg/ml), Cisplatin (1 μg/ml), 5-FU ([…]) and Doxorubicin (0.01 μg/ml), respectively.

[2] = tested on: BNIP3, IRF8, Neurog1, p15ink4b, RUNX3; assay: Expression of genes with methylated promoters; assay type: cell-based, human; settings: SW620, AzadC 0-1.0 μM
Method: To determine whether verticillin A inhibits DNA methylation in other gene promoters, 4 other genes (IRF8, Neurog1, p15ink4b, RUNX3) with known promoter DNA methylation in human colon carcinoma cells were selected. SW620 cells were treated with AzadC (0-1.0 μM) and verticillin A (0-50 nM), respectively, and analyzed for the expression of BNIP3 and these 4 genes.

SW620 cells [3] = assay: Exogenous ceramide and TRAIL-mediated apoptosis; assay type: cell-based, human
Method: FIG. 8 is a bar graph showing cell death (%) of SW620 cells incubated with C16 ceramide for 2 h followed by treatment with TRAIL overnight. The tumor cells were then stained with PI and annex V and analyzed by flow cytometry. % apoptotic cells were calculated by the formula [% annexin V^+ cells of the TRAIL-treated cells-% annexin V^+ cells of untreated cells].
A-CDase catalyzes ceramide degradation to decrease ceramide level in the cells and overexpression of A-Cdase is often associated with apoptosis resistance in tumor cells (Elojeimy S, et al. Mol Ther 2007 15(7):1259-63; Liu X, et al. Front Biosci 2008 13:2293-8; Mao C, et al. Biochim Biophys Acta 2008 1781(9):424-34; Ogretmen B. FEBS Lett 2006 580(23):5467-76; Baran Y, et al. J Biol Chem 2007 282(15):10922-34). Inhibition of A-CDase activity is often associated with increased ceramide level and enhanced apoptosis sensitivity (Liu X, et al. Front Biosci 2008 13:2293-8; Ogretmen B. FEBS Lett 2006 580(23):5467-76; White-Gilbertson S, et al. Oncogene 2009 28(8):1132-41). Next, we examined the effect of exogenous ceramide on tumor cell sensitivity to TRAIL-mediated apoptosis. SW620 cells were incubated with different concentrations of C16 ceramide for 2 h and then treated with TRAIL.

[4] = tested on: Colon carcinoma (LS114N, T84, LS174T and SW620); assay: A-CDase inhibitor pre-treatment and TRAIL-induced apoptosis; assay type: cell-based; settings: LCL85 pre-treatment prior to TRAIL
Method: A complementary approach was examined to determine the role of A-CDase in TRAIL resistance. Colon carcinoma (LS114N, T84, LS174T and SW620) were treated with A-CDase inhibitor LCL85 prior to TRAIL treatment and analyzed for apoptosis.

SW620 cells [5] = assay: Apoptosis and TRAIL sensitization of SW620 cells (PI/annexin V flow cytometry); assay type: cell-based, human; settings: SW620, agent alone
Method: Cells were seeded in wells of 96-well plates for 2 days and then treated with different concentrations of mushroom extract fractions or purified verticillin A for 2 days. The cells were stained with propidium iodide (PI) (Trevigen, Gaithersburg, Md.) or PI plus annexin V-Alex Fluor 647 (Biolegend, San Diego, Calif.) and analyzed by flow cytometry.
SW620 is a metastatic human colon carcinoma cell line that is resistant to TRAIL-induced apoptosis (Voelkel-Johnson C, et al. Mol Cancer Ther 2005 4(9):1320-7).

SW620 tumor xenograft = SW620 tumor xenograft growth in athymic mice; assay type: in vivo; settings: TRAIL single agent
Method: Athymic mice were subcutaneously inoculated with human hepatoma HepG2 and colon carcinoma SW620 cells, respectively. The tumor-bearing mice were randomized into experimental groups. The control mice were given saline. The treatment group was intravenously injected with verticillin A at the doses of 1 and 2 mg/kg body weight. Tumor size was measured in 2 diameter with micrometer caliper at the indicate times to permit calculation of tumor volume, V=(a×b^2)/2, where “a” is the length and “b” is the width in millimeters. At the end of the experiment, all the animals were sacrificed, The tumor inhibitory rates were calculated using the following formula: [(mean tumor volume of control nude mice−mean tumor volume of treated nude mice)/mean tumor volume of control nude mice]×100%.
The disclosed observations indicate that verticillin A can dramatically increase TRAIL-induced tumor cell apoptosis. To determine whether these in vitro observations can be extended to enhance TRAIL-mediated tumor suppression in vivo, SW620 cells were injected subcutaneously to athymic mice, verticillin A and TRAIL, either used as single agent or in combination, were then injected to the tumor-bearing mice. Tumor growth rate were measured in different time points. Verticillin A can inhibit tumor cell growth in vitro at high dose and sensitize tumor cells to TRAIL-induced apoptosis at a low dose. […] As expected, SW620 tumors are resistant to TRAIL (Voelkel-Johnson C, et al. Mol Cancer Ther 2005 4(9):1320-7).

Row | Molecule | growth inhibitory effect of the drug alone at lower dose (SW620 cells [1]) | SW620 cell sensitivity to the drug (SW620 cells [1]) | other results
1 | N.N.[Cl][Pt][Cl] [Cisplatin] | minimal inhibitory effects | only sensitive to high doses | 
2 | COc1cc([C@@H]2c3cc4c(cc3[C@@H](O[C@@H]3O[C@@H]5CO[C@@H](C)O[C@H]5[C@H](O)[C@H]3O)[C@H]3COC(=O)[C@H]23)OCO4)cc(OC)c1O [Etoposide] | minimal inhibitory effects | resistant | 
3 | O=c1[nH]cc(F)c(=O)[nH]1 [5-FU] | minimal inhibitory effects | sensitive | 
4 | COc1cccc2c1C(=O)c1c(O)c3c(c(O)c1C2=O)C[C@@](O)(C(=O)CO)C[C@@H]3O[C@H]1C[C@H](N)[C@H](O)[C@H](C)O1 [Doxorubicin] | minimal inhibitory effects | only sensitive to high doses | 
5 | Nc1ncn([C@H]2C[C@H](O)[C@@H](CO)O2)c(=O)n1 [AzadC, reference compound] |  |  | expression levels of BNIP3, IRF8, Neurog1, p15ink4b, RUNX3 [2]: dramatically increased
6 | CCCCCCCCCCCCC/C=C/[C@@H](O)[C@H](CO)NC(=O)CCCCCCCCCCCCCCC [C16 ceramide] |  |  | tumor cell sensitivity to TRAIL-mediated apoptosis (SW620 cells [3]; SW620, C16 ceramide 2 h then TRAIL): dramatically increased the tumor cell sensitivity to TRAIL-mediated apoptosis; apoptosis-inducing activity (SW620 cells [3]; SW620, C16 ceramide alone): exhibited apoptosis-inducing activity at a dose-dependent manner
7 | O=C(CCCCCCCCCCCCCCC[n+]1ccccc1)N[C@H](CO)[C@H](O)c1ccc([N+](=O)[O-])cc1.[Br-] [LCL85, (1R,2R)-2_N-[16-(1′-pyridinium)-hexadecanoylamino)-1-(4′-nitrophenyl)-1,3-propandiol bromide] |  |  | sensitivity of tumor cells to TRAIL-induced apoptosis [4]: significantly increased the sensitivity of tumor cells to TRAIL-induced apoptosis
8 | TRAIL: TNF-related apoptosis-inducing ligand; recombinant TRAIL protein expressed and purified from E. coli (protein, UniProt P50591 1-281, looked up) Tumor necrosis factor ligand …: MAMMEVQGGPSLGQTCVLIVIFTVLLQSLCVAVTYVYFTNELKQMQDKYSKSGIACFLKEDDSYWDPNDEESMNSPCWQVKWQLRQLVRKMILRTSEETISTVQEKQQNISPLVRERGPQRVAAHITGTRGRSNTLSSPNSKNEKALGRKINSWESSRSGHSFLSNLHLRNGELVIHEKGFYYIYSQTYFRFQEEIKENTKNDKQMVQYIYKYTSYPDPILLMKSARNSCWSKDAEYGLYSIYQGGIFELKENDRIFVSVTNEHLIDMDHEASFFGAFLVG |  |  | apoptosis induction, single agent (SW620 cells [5]): no apoptosis induction activity; SW620 tumor response to TRAIL alone (SW620 tumor xenograft): resistant
